Source: patent US20110250135A1, “Piperazine Derivatives for Binding and Imaging Amyloid Plaques and Their Use” (Bayer Schering Pharma Aktiengesellschaft, priority 2008, published 2011)

Experiments:
[1] = Biodistribution: organ distribution of F-18 signal in mice; format: in vivo, male NMRI mice; conditions: for Organ distribution of F-18 signal, intestine: intestine (with content); for Organ distribution of F-18 signal, stomach: stomach (without content)
Description: Biodistribution and excretion studies were performed in male NMRI mice (body weight app. 30g; 3 animals per time point). The animals were kept under normal laboratory conditions at a temperature of 22±2° C. and a dark/light rhythm of 12 hours. Food and water were provided ad libitium. During an acclimation period of at least 3 days before the beginning of the study animals were clinically examined to ascertain the absence of abnormal clinical signs. At 2, 5, 30, 60, 240 min post intravenous injection via the tail vein of ca. 150 kBq in 100 μl of the test compound, urine and feces were quantitatively collected. At the same time points, animals were sacrificed by decapitation and under isoflurane anaesthesia and the following organs and tissues were removed for the determination of radioactivity using a gamma-counter: spleen, liver, kidney, lung, femur, heart, brain, fat, thyroid, muscle, skin, blood, tail, stomach (without content), testicle, intestine (with content), pancreas, adrenals, and the remaining body. For analysis the decay corrected percentage of the injected dose per tissue weight (% ID/g±standard deviation) was calculated.

Aβ plaques = biological target: T1, Aβ plaques (Homo sapiens, UniProt P05067); experiment: Autoradiographical analysis of binding to cryosections from cortex of AD patients and controls; conditions: F-18 labeled compound; Alzheimer's disease patients (AD) vs controls without Aβ plaques
T1 construct: controls without Aβ plaques; from tissue; host or cells: frontal lobe / cortex sections (frozen and paraffin) from AD patients, FTD patients and age-matched controls
Source text: Fresh frozen as well as paraffin embedded sections of the frontal lobe from Alzheimer's dementia patients, frontotemporal dementia patients and age matched controls were used for the study. Frozen sections, sliced at 18 μm thickness on a cryostate (Leica, Germany) and paraffin sections, sliced on a sliding microtom (Leica) at a thickness of 6 μm, were mounted onto glass slides (Superfrost Plus, Fa.Menzel, Braunschweig Germany). Frozen sections were allowed to adhere to the slides for several nights at −20° C. The paraffin sections were deparaffinized using routine histological methods. For binding studies sections were incubated with the F-18 labeled test compound at 10 Bq/μl diluted in 25 mM Hepes buffer, pH 7.4, 0.1% (BSA) (200-300 μl/slide) for 1.5 hour at room temperature in a humidified chamber. For blocking experiments a 1000-fold access of the unlabeled test substance was added to the incubation mixture. After hybridization, sections were washed four times with Hepes buffer, 0.1% BSA (or alternatively two times with 40% ethanol) and finally dipped two times into dest. water for 10 sec. The air-dried sections were exposed to imaging plates and signals were detected by a phosphoimager device (Fuji BAS5000).

T1 sequence (P05067 672-713 limits assumed): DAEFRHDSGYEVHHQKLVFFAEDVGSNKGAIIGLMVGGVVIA

In the case of O=C(NCC(=O)N1CCN(c2ccc(OCc3ccccc3)cc2)CC1)c1cccc(OCC[18F])c1 [Example 3g, N-{2-[4-(4-Benzyloxy-phenyl)-piperazin-1-yl]-2-oxo-ethyl}-3-(2-[F-18]fluoro-ethoxy)benzamide], the “Organ distribution of F-18 signal, adrenals” value (“Organ distribution … adrenals” below) ([1]; 2 min post i.v. injection) is reported as 7.57 % ID/g, the “Organ distribution … adrenals” value ([1]; 5 min post i.v. injection) is reported as 10.67 % ID/g and the “Organ distribution … adrenals” value ([1]; 30 min post i.v. injection) is reported as 4.49 % ID/g. For the same molecule, the “Organ distribution … adrenals” value ([1]; 60 min post i.v. injection) was 1.77 % ID/g, the “Organ distribution … adrenals” value ([1]; 240 min post i.v. injection) was 1.03 % ID/g and the “Organ distribution of F-18 signal, blood” value ([1]; 2 min post i.v. injection) was 1.72 % ID/g. The “Organ distribution of F-18 signal, blood” value ([1]; 5 min post i.v. injection) was 2.12 % ID/g, the “Organ distribution of F-18 signal, blood” value ([1]; 30 min post i.v. injection) was 1.85 % ID/g and the “Organ distribution of F-18 signal, blood” value ([1]; 60 min post i.v. injection) was 1.32 % ID/g. For the same molecule, the “Organ distribution of F-18 signal, blood” value ([1]; 240 min post i.v. injection) was 0.57 % ID/g, the “Organ distribution of F-18 signal, brain” value ([1]; 2 min post i.v. injection) was 5.15 % ID/g and the “Organ distribution of F-18 signal, brain” value ([1]; 5 min post i.v. injection) was 4.14 % ID/g. The “Organ distribution of F-18 signal, brain” value ([1]; 30 min post i.v. injection) was 1.66 % ID/g, the “Organ distribution of F-18 signal, brain” value ([1]; 60 min post i.v. injection) was 0.93 % ID/g and the “Organ distribution of F-18 signal, brain” value ([1]; 240 min post i.v. injection) was 0.42 % ID/g. For the same molecule, the “Organ distribution of F-18 signal, fat” value ([1]; 2 min post i.v. injection) was 1.97 % ID/g, the “Organ distribution of F-18 signal, fat” value ([1]; 5 min post i.v. injection) was 2.44 % ID/g and the “Organ distribution of F-18 signal, fat” value ([1]; 30 min post i.v. injection) was 4.26 % ID/g. For the same molecule, the “Organ distribution of F-18 signal, fat” value ([1]; 60 min post i.v. injection) was 2.38 % ID/g, the “Organ distribution of F-18 signal, fat” value ([1]; 240 min post i.v. injection) was 0.34 % ID/g and the “Organ distribution of F-18 signal, femur” value ([1]; 2 min post i.v. injection) was 1.95 % ID/g. The “Organ distribution of F-18 signal, femur” value ([1]; 5 min post i.v. injection) was 1.79 % ID/g, the “Organ distribution of F-18 signal, femur” value ([1]; 30 min post i.v. injection) was 1.05 % ID/g and the “Organ distribution of F-18 signal, femur” value ([1]; 60 min post i.v. injection) was 1.11 % ID/g. For the same molecule, the “Organ distribution of F-18 signal, femur” value ([1]; 240 min post i.v. injection) was 3.06 % ID/g, the “Organ distribution of F-18 signal, heart” value ([1]; 2 min post i.v. injection) was 15.57 % ID/g and the “Organ distribution of F-18 signal, heart” value ([1]; 5 min post i.v. injection) was 8.25 % ID/g. For the same molecule, the “Organ distribution of F-18 signal, heart” value ([1]; 30 min post i.v. injection) was 3.47 % ID/g, the “Organ distribution of F-18 signal, heart” value ([1]; 60 min post i.v. injection) was 2.07 % ID/g and the “Organ distribution of F-18 signal, heart” value ([1]; 240 min post i.v. injection) was 0.61 % ID/g. The “Organ distribution of F-18 signal, intestine” value (shortened to “Organ distribution … intestine”) ([1]; 2 min post i.v. injection) was 1.93 % ID/g, the “Organ distribution … intestine” value ([1]; 5 min post i.v. injection) was 1.87 % ID/g and the “Organ distribution … intestine” value ([1]; 30 min post i.v. injection) was 4.58 % ID/g. For the same molecule, the “Organ distribution … intestine” value ([1]; 60 min post i.v. injection) was 6.47 % ID/g, the “Organ distribution … intestine” value ([1]; 240 min post i.v. injection) was 8.50 % ID/g and the “Organ distribution of F-18 signal, kidney” value (from here on “Organ distribution … kidney”) ([1]; 2 min post i.v. injection) was 15.52 % ID/g. The “Organ distribution … kidney” value ([1]; 5 min post i.v. injection) was 14.38 % ID/g, the “Organ distribution … kidney” value ([1]; 30 min post i.v. injection) was 11.43 % ID/g and the “Organ distribution … kidney” value ([1]; 60 min post i.v. injection) was 7.70 % ID/g. For the same molecule, the “Organ distribution … kidney” value ([1]; 240 min post i.v. injection) was 1.05 % ID/g, the “Organ distribution of F-18 signal, liver” value ([1]; 2 min post i.v. injection) was 6.35 % ID/g and the “Organ distribution of F-18 signal, liver” value ([1]; 5 min post i.v. injection) was 13.36 % ID/g. The “Organ distribution of F-18 signal, liver” value ([1]; 30 min post i.v. injection) was 8.75 % ID/g, the “Organ distribution of F-18 signal, liver” value ([1]; 60 min post i.v. injection) was 5.04 % ID/g and the “Organ distribution of F-18 signal, liver” value ([1]; 240 min post i.v. injection) was 1.44 % ID/g. The “Organ distribution of F-18 signal, lung” value ([1]; 2 min post i.v. injection) was 5.58 % ID/g, the “Organ distribution of F-18 signal, lung” value ([1]; 5 min post i.v. injection) was 4.05 % ID/g and the “Organ distribution of F-18 signal, lung” value ([1]; 30 min post i.v. injection) was 2.55 % ID/g. The “Organ distribution of F-18 signal, lung” value ([1]; 60 min post i.v. injection) was 1.66 % ID/g, the “Organ distribution of F-18 signal, lung” value ([1]; 240 min post i.v. injection) was 0.59 % ID/g and the “Organ distribution of F-18 signal, muscle” value (from here on “Organ distribution … muscle”) ([1]; 2 min post i.v. injection) was 3.95 % ID/g. The “Organ distribution … muscle” value ([1]; 5 min post i.v. injection) was 3.17 % ID/g, the “Organ distribution … muscle” value ([1]; 30 min post i.v. injection) was 1.95 % ID/g and the “Organ distribution … muscle” value ([1]; 60 min post i.v. injection) was 1.31 % ID/g. The “Organ distribution … muscle” value ([1]; 240 min post i.v. injection) was 0.30 % ID/g, the “Organ distribution of F-18 signal, pancreas” value (from here on “Organ distribution … pancreas”) ([1]; 2 min post i.v. injection) was 4.96 % ID/g and the “Organ distribution … pancreas” value ([1]; 5 min post i.v. injection) was 4.26 % ID/g. The “Organ distribution … pancreas” value ([1]; 30 min post i.v. injection) was 2.21 % ID/g, the “Organ distribution … pancreas” value ([1]; 60 min post i.v. injection) was 1.22 % ID/g and the “Organ distribution … pancreas” value ([1]; 240 min post i.v. injection) was 0.32 % ID/g. For the same molecule, the “Organ distribution of F-18 signal, skin” value ([1]; 2 min post i.v. injection) was 1.72 % ID/g, the “Organ distribution of F-18 signal, skin” value ([1]; 5 min post i.v. injection) was 2.15 % ID/g and the “Organ distribution of F-18 signal, skin” value ([1]; 30 min post i.v. injection) was 1.93 % ID/g. For the same molecule, the “Organ distribution of F-18 signal, skin” value ([1]; 60 min post i.v. injection) was 1.29 % ID/g, the “Organ distribution of F-18 signal, skin” value ([1]; 240 min post i.v. injection) was 0.42 % ID/g and the “Organ distribution of F-18 signal, spleen” value (“Organ distribution … spleen” below) ([1]; 2 min post i.v. injection) was 1.73 % ID/g. The “Organ distribution … spleen” value ([1]; 5 min post i.v. injection) was 2.22 % ID/g, the “Organ distribution … spleen” value ([1]; 30 min post i.v. injection) was 1.28 % ID/g and the “Organ distribution … spleen” value ([1]; 60 min post i.v. injection) was 0.86 % ID/g. For the same molecule, the “Organ distribution … spleen” value ([1]; 240 min post i.v. injection) was 0.36 % ID/g, the “Organ distribution of F-18 signal, stomach” value (“Organ distribution … stomach” for short) ([1]; 2 min post i.v. injection) was 4.78 % ID/g and the “Organ distribution … stomach” value ([1]; 5 min post i.v. injection) was 4.49 % ID/g. The “Organ distribution … stomach” value ([1]; 30 min post i.v. injection) was 2.20 % ID/g, the “Organ distribution … stomach” value ([1]; 60 min post i.v. injection) was 1.53 % ID/g and the “Organ distribution … stomach” value ([1]; 240 min post i.v. injection) was 0.82 % ID/g. The “Organ distribution of F-18 signal, tail” value ([1]; 2 min post i.v. injection) was 8.94 % ID/g, the “Organ distribution of F-18 signal, tail” value ([1]; 5 min post i.v. injection) was 9.06 % ID/g and the “Organ distribution of F-18 signal, tail” value ([1]; 30 min post i.v. injection) was 4.73 % ID/g. The “Organ distribution of F-18 signal, tail” value ([1]; 60 min post i.v. injection) was 2.57 % ID/g, the “Organ distribution of F-18 signal, tail” value ([1]; 240 min post i.v. injection) was 1.98 % ID/g and the “Organ distribution of F-18 signal, testicle” value (shortened to “Organ distribution … testicle”) ([1]; 2 min post i.v. injection) was 1.19 % ID/g. The “Organ distribution … testicle” value ([1]; 5 min post i.v. injection) was 1.58 % ID/g, the “Organ distribution … testicle” value ([1]; 30 min post i.v. injection) was 1.44 % ID/g and the “Organ distribution … testicle” value ([1]; 60 min post i.v. injection) was 1.84 % ID/g. For the same molecule, the “Organ distribution … testicle” value ([1]; 240 min post i.v. injection) was 0.38 % ID/g, the “Organ distribution of F-18 signal, thyroid” value (“Organ distribution … thyroid” for short) ([1]; 2 min post i.v. injection) was 3.87 % ID/g and the “Organ distribution … thyroid” value ([1]; 5 min post i.v. injection) was 3.67 % ID/g. For the same molecule, the “Organ distribution … thyroid” value ([1]; 30 min post i.v. injection) was 1.78 % ID/g, the “Organ distribution … thyroid” value ([1]; 60 min post i.v. injection) was 1.04 % ID/g and the “Organ distribution … thyroid” value ([1]; 240 min post i.v. injection) was 0.56 % ID/g. The “autoradiographical analysis of binding to cryosections from cortex” value (Aβ plaques) was “Specific binding in plaque-rich regions of AD samples”.
